# Source: PubChem BioAssay AID849 (SRMLSC, 2007)
# Active and inactive are the calls of the source. No rule for the calls is given here.
# Test system: Saccharomyces cerevisiae lifespan shortening, growth inhibition
# Assay: yeast lifespan shortening compounds, dose response (AID 849);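 also: yeast growth read as optical density after two days at 30 degrees C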
row,SMILES,IC50
1,Cc1ccc(-n2c(C)cc(C(=O)COC(=O)c3ccc[nH]c3=O)c2C)cc1,18.1 µM
2,Cc1ccc(/C(N)=N/OC(=O)c2ccc(Cl)cc2Cl)cc1,18.3 µM
3,CCCCS(=O)(=O)/C=C\C=C/S(=O)(=O)CCCC,> 100 µM (inactive)
4,CCCCN=C(NNc1ccc(Br)cc1)C(=O)OCC,5.3 µM
5,O=C(CC(=O)c1cc(Cl)ccc1O)c1ccccc1,> 100 µM (inactive)
6,CCC(C)NC(=O)CS(=O)Cc1nc(-c2ccccc2C)oc1C (centres undefined),> 100 µM (inactive)
7,OC(CNCCc1ccc(C(F)(F)F)cc1)COc1ccc2ccccc2c1 (centres undefined),> 100 µM (inactive)
8,Oc1c(Cl)cc(Cl)cc1Sc1cc(Cl)cc(Cl)c1O,25.4 µM
9,Cc1cc(C)c2c(N=NN3CCCCC3)[nH]nc2n1,5.02 µM
10,CCc1cccc(C)c1NC(=S)NCCc1c(C)[nH]c2ccc(C)cc12,41 µM
11,O=[N+]([O-])c1ccc(N/N=C2/CCCCC2c2ccccn2)cc1 (centres undefined),5.86 µM
12,CCCS(=O)(=O)c1nnnn1-c1cccc(OC)c1,3.4 µM
13,NNC(=O)c1cccc(COc2ccc(Br)cc2)c1,41.9 µM
14,Cc1cc(C)c2c(=O)n(CC(=O)N3CCC(Cc4ccccc4)CC3)sc2n1,> 100 µM (inactive)
15,c1ccc(Cc2nnc3sc(-c4ccc5c(c4)OCCO5)nn23)cc1,> 100 µM (inactive)
16,Cc1ccc(-c2cc(-c3ccccc3C)[nH]n2)c(O)c1,15.8 µM
17,Nc1ccc(O)c2c1C(=O)c1ccccc1C2=O,28.1 µM
18,N#CSCC(=O)c1cccc2ccccc12,8.65 µM
19,CCCCCCCCCCn1c2c(c(=N)c3c1CCC3)CCC2,9.12 µM
20,O=Cc1c(Sc2ccccc2)nc2ccccn2c1=O,29 µM
21,O=S(=O)(/N=C(\Sc1ccc(Cl)cc1)c1ccccc1)c1ccccc1,49.2 µM
22,O=[N+]([O-])c1ccc(O)c2ncccc12,0.575 µM
23,CCOC(=O)c1c(/N=C/c2cc([N+](=O)[O-])ccc2O)sc(C)c1C,47.1 µM
24,CCCCOC(=O)n1c(=S)oc2cc(Cl)ccc21,16.5 µM

row,SMILES,IC50
1,N#CCSc1nc2ccccc2c2nc3ccccc3n12,29.3 µM
2,O=C(O)c1cc2c(s1)-c1ccccc1CC2,30.5 µM
3,Nc1c(Cl)ncnc1N/N=C/c1ccccn1,11.2 µM
4,Cc1cc(C)nc(/N=c2/ssnc2Cl)c1,> 100 µM (inactive)
5,O=c1c2ccccc2nc2sc3ccccc3n12,27.8 µM
6,CCc1nc2ccccc2c(=O)n1NC(=O)c1c(O)c2cccc3c2n(c1=O)CCC3,> 100 µM (inactive)
7,O=C(CSC1=NS(=O)(=O)c2ccccc21)Nc1ccccc1,> 100 µM (inactive)
8,COc1ccc(Nc2cnn(-c3nc4ccccc4s3)c(=O)c2Cl)cc1,> 100 µM (inactive)
9,Cc1ccc(-c2nc3sc(C(N)=O)c(N)c3c3c2CCCC3)cc1,> 100 µM (inactive)
10,Cc1conc1NC(c1cccs1)c1ccc2cccnc2c1O (centres undefined),40.8 µM
11,CC(=O)NC(=S)c1c(N)n(Cc2ccccc2)c(=O)n(C)c1=O,> 100 µM (inactive)
12,O=C(Nc1nc(-c2ccccn2)cs1)c1ccc(Br)s1,9.04 µM
13,Cc1cccc(N=Nc2ccc(O)c3ncccc23)c1,34.8 µM
14,CCSc1ncc(/C=N/Nc2ccc(Cl)cc2)n1C,36.7 µM
15,CCOC(=O)c1c(-c2ccc(-c3ccccc3)cc2)csc1NC(=O)CCN1CCOCC1,19.1 µM
16,Clc1ccc2[nH]c3c(c2c1)CCc1cn[nH]c1-3,12.5 µM
17,N/C(Cc1ccc(Cl)c(Cl)c1)=N\OC(=O)c1cccs1,> 100 µM (inactive)
18,O=C(O)c1cc2c(s1)-c1ccccc1OC2,42.2 µM
19,CC1=C(C)/C(=N\OS(=O)(=O)c2ccc(C)cc2)C=CC1=O,12.5 µM
20,N#CC(c1cccc(Cl)c1)c1ccc2c(C(F)(F)F)cc(C(F)(F)F)nc2n1 (centres undefined),> 100 µM (inactive)
21,OC(CN1CCN(c2ccccn2)CC1)Cn1c2ccc(Cl)cc2c2cc(Cl)ccc21 (centres undefined),47.5 µM
22,Cc1cccc(/C(N)=N/OC(=O)c2ccc(F)cc2)c1,23.8 µM
23,COc1ccc(C(=O)NC(=S)NNC(=O)c2cnccn2)cc1OC,20.5 µM
24,O=C1C=C(c2ccccc2)C(=O)N1Nc1ccccc1,12 µM

row,SMILES,IC50
1,Clc1ccc(CSC(Cn2ccnc2)c2ccc(Cl)cc2Cl)cc1 (centres undefined),0.528 µM
2,Cc1ccc(C(=O)OCn2ncc(Cl)c(Cl)c2=O)cc1,3.73 µM
3,COc1ccc2nc(/N=C(\N)NC(=O)Nc3ccccc3)nc(C)c2c1,50.4 µM
4,COc1ccccc1N1CCN(Cc2cc(Br)c(O)c3ncccc23)CC1,15.8 µM
5,Cn1c(C(=O)N2CCC(C(=O)N3CCN(Cc4ccc5c(c4)OCO5)CC3)CC2)cc2sccc21,> 100 µM (inactive)
6,O=C(O)CSc1nc(-c2ccc(Cl)cc2)nc2c1oc1ccccc12,38 µM
7,CCCOC(=O)c1ccc(Oc2cn[nH]c2-c2ccc(OCC)cc2O)cc1,> 100 µM (inactive)
8,CCC(=O)c1c(O)n(C2CCCCCC2)c(=O)[nH]c1=O,23.4 µM
9,Cc1ccc(Nc2cc(C)nn2-c2nc(C)cc(=O)[nH]2)cc1,1.18 µM
10,CN1CSC(=S)N(C)C1,17.3 µM
11,CCCc1ccc(Oc2c(-c3ccc(O)c(C)c3O)n[nH]c2C)cc1,7.01 µM
12,O=[N+]([O-])c1cc(Cc2ccccc2)cc(C=Nc2ccc(N3CCOCC3)cc2)c1O,> 100 µM (inactive)
13,CC12C(=O)N(c3cccc4cccnc34)C(=O)C1C1C=CC2C1 (centres undefined),> 100 µM (inactive)
14,COC(=O)Cn1c2ccc(C)cc2c2nc(C)sc21,> 100 µM (inactive)
15,Cc1cccnc1Nc1nc(-c2ccccn2)cs1,45.7 µM
16,CC(=O)NC(c1cccs1)c1cc([N+](=O)[O-])c2cccnc2c1O (centres undefined),> 100 µM (inactive)
17,CC1(C)C[C@H]2C=C(C=O)[C@]3(C=O)C[C@]3(C)[C@H]2C1,5.25 µM
18,CC(=O)N1CCN(c2ccc(OC[C@H]3CO[C@](Cn4ccnc4)(c4ccc(Cl)cc4Cl)O3)cc2)CC1,9.27 µM
19,O=C1CSC(=S)N1c1cccnc1,31.9 µM
20,O=C(Oc1c(Cl)cc(Cl)c2cccnc12)c1cccc([N+](=O)[O-])c1,2.95 µM
21,CCOc1cc(C2CC(=O)N3CN(C4CCCCC4)CSC3=C2C#N)ccc1O (centres undefined),> 100 µM (inactive)
22,COc1ccc(-c2cc(=O)n(-c3nc4ccccc4[nH]3)[nH]2)cc1,12.5 µM
23,CCn1c(Sc2nc(C)nc3scc(-c4cccs4)c23)n[nH]c1=O,> 100 µM (inactive)
24,Cn1c(N2CCOCC2)c(/C=N/OC(=O)c2ccc(F)cc2)c2ccccc21,42.2 µM

row,SMILES,IC50
1,Fc1ccc(N/N=C2/CC(c3ccccc3)Oc3ccccc32)c(F)c1 (centres undefined),27.7 µM
2,CC(Oc1ccc2ccccc2c1)C(=O)NNC(=S)NC(=O)c1ccco1 (centres undefined),17.7 µM
3,Cc1sc2ncnc(N/N=C/c3ccccc3O)c2c1C,42.2 µM
4,Cc1ccccc1C(=O)O/N=C/c1c(N2CCOCC2)n(C)c2ccccc12,49.9 µM
5,CCOC(=O)c1c(NC(=O)C(C)Sc2cccc[n+]2[O-])sc2c1CCN(Cc1ccccc1)C2 (centres undefined),12.4 µM
6,CC1CCC2(CC1)NC(=S)N(c1ccccc1)N2 (centres undefined),23.6 µM
7,CC1CCCC2(C1)NC(=S)c1c(sc3c1CCCC3)N2 (centres undefined),> 100 µM (inactive)
8,CC1CCCCN1S(=O)(=O)c1coc(C(N)=O)c1 (centres undefined),> 100 µM (inactive)
9,CC(C)(C)N/N=C/c1cc(Cl)cc([N+](=O)[O-])c1O,12.9 µM
10,CCOC(=O)C1C(C)N=C2SCC(=O)N2C1c1cccc(Br)c1 (centres undefined),> 100 µM (inactive)
11,COc1ccc(C(=O)NC(=S)NNC(=O)c2cnccn2)cc1,16.3 µM
12,O=C(CCCSc1ccccc1)Nc1nc(-c2ccccn2)cs1,50.5 µM
13,CCCC1COC(Cn2cncn2)(c2ccc(Cl)cc2Cl)O1 (centres undefined),0.274 µM
14,O=C1ON=C(c2ccccc2)/C1=C/c1ccc(OS(=O)(=O)c2ccccc2)cc1,18.9 µM
15,CCC1C(=O)N=C(SCC(=O)Nc2ccccc2)NC1=O (centres undefined),> 100 µM (inactive)
16,CC(Oc1ccc(Cl)cc1Cl)C(=O)NC1=NN(c2ccccc2)C(=O)C1 (centres undefined),9.36 µM
17,O=c1cccc2n1Cc1cc3ccccc3nc1-2,29.8 µM
18,CCc1cc2c(=O)[nH]c(-c3ccccn3)nc2s1,19.2 µM
19,Cc1cccc(OCCCCc2c(C)n[nH]c2C)c1C,38.1 µM
20,O=C(/C(=N/N=C/c1ccc(O)c(O)c1O)c1ccccc1)c1ccccc1,25.8 µM
21,Cn1c(-c2ccco2)nc2cc3ccccc3cc21,39.7 µM
22,Cc1cc(-c2ccco2)c(C#N)c2nc3ccccc3n12,5.77 µM
23,Cc1oc(-c2cccs2)nc1CS(=O)CC(=O)NC1CCCCCC1 (centres undefined),> 100 µM (inactive)
24,C(=N\c1ncnc2sccc12)/NOCc1ccccc1,23.2 µM

row,SMILES,IC50
1,CCOC(=O)c1c(N)sc2c(OC)c(Br)ccc12,> 100 µM (inactive)
2,Cc1nn(-c2ccccc2)c2sc(C(=O)O)cc12,47.2 µM
3,NC(=O)c1sc2nc(-c3ccco3)ccc2c1N,> 100 µM (inactive)
4,O=[N+]([O-])c1ccc(CN2CCCCCC2)s1,> 100 µM (inactive)
5,CCOCCCNC(=O)c1ccc(Br)cc1,> 100 µM (inactive)
6,Cc1ccc(C(=O)O)cc1N=Cc1cc(Br)cc(Br)c1O,37.4 µM
7,Cc1ccc2nc(/C(C#N)=C\c3ccc([N+](=O)[O-])o3)[nH]c2c1,18.9 µM
8,Cc1ccc(-n2c(C)cc(C(=O)COC(=O)c3ccc[nH]c3=O)c2C)cc1C,3.98 µM
9,Oc1c(Cl)cc(Cl)c2c1NCCC2,17.4 µM
10,CNc1nnc(-c2cc3cc(Cl)ccc3oc2=O)s1,> 100 µM (inactive)
11,Clc1cc2nc3ccccn3c2cc1Cl,51.5 µM
12,NNC(=O)c1ccc(COc2ccc3c(c2)CCC3)o1,15.1 µM
13,CC1=CC(=O)c2ccccc2C1=O,18.5 µM
14,COc1ccc(C(=O)/C=C/N2CCCCC2)cc1OC,21.4 µM
15,Oc1c(CN2CCN(c3ccccn3)CC2)cc(Cl)c2cccnc12,37.2 µM
16,CCCCCC1CCC(C(=O)O)CC1 (centres undefined),> 100 µM (inactive)
17,CC(NC(=O)Nc1ccc(Cl)cc1)C(c1cccs1)N1CCOCC1 (centres undefined),> 100 µM (inactive)
18,COc1ccc(C(=O)C(C)(C)NO)cc1,33.7 µM
19,Cc1cc(N2CCN(C(=O)c3ccco3)CC2)n2ncc(-c3ccccc3)c2n1,> 100 µM (inactive)
20,Cc1nn2c(-c3ccco3)nnc2c2ccccc12,26.5 µM
21,COc1cccc2sc(Nc3nc(-c4ccccn4)cs3)nc12,20.4 µM
22,CCCCCC/C(C)=C1/SC(=S)NC1=O,> 100 µM (inactive)
23,Cc1cccc(C(=O)Oc2csc(=S)n2C(=O)c2cccc(C)c2)c1,> 100 µM (inactive)
